Patent publication US12168673B2 (Mitopower, Inc., priority 2022, dated 2024)
Like-named read-outs stand apart in the source and are kept apart here.

How the values were obtained:
Jurkat Cells = assay: Cellular NAD+ levels in Jurkat cells (LCMS/MS); format: cell-based; conditions: 30 μM, four hours of incubation
Method: Compounds 100, 101 and 102 were weighted out to prepare 60 μM stock solutions in RPMI media. 200 ng/mL solution of Rac-tenofovir d6 (Vivan Life-Sciences) was prepared in methanol (MeOH) and placed at −20° C. until use.
Jurkat Cells, sourced from NCCS Pune, were cultured in RPMI media containing FBS & Antibiotics. Cells from different flasks (90% confluent) were pooled into a 15 mL conical tube and centrifuged for 5 mins at 1200 rpm for 5 mins. The supernatant solution was discarded, and the pellet was washed with 5 mL sterile PBS (without Ca^2+ & Mg^2+). The tube was then centrifuged at 1200 rpm for 5 mins and the supernatant was discarded. The cell pellet was resuspended in 7 mL of RPMI media, and a cell count was done using 10 uL of the cell solution. 1.5 million cells from the cell solution were seeded into 1.5 mL microcentrifuge tubes. […] The tubes were placed in racks and gently swirled to mix the compounds into the media containing the cells. These tubes were then incubated for 4 hours in a 37° C. incubator at 5% CO2. After 4 hours of incubation the cells were spun down at 1000 rpm for 10 mins, the supernatant was discarded carefully, and cells were snap frozen in liquid nitrogen. When the samples were run, the extraction of the cells was on ice, cells were lysed using 20 uL deionized water and then ice cold 80% methanol containing the internal standard—Rac-Tenofovir D was added. The tubes were then vortexed at 2500 rpm for 8 minutes and then centrifuged at […] for 10 minutes. 150 uL of the supernatant was carefully transferred to HPLC vials and was analyzed for NAD^+ on the Abscised 4000 Q Trap LCMS/MS system. A C18, 3.5 μm, 2.1×100 mm, Bridge Column was used in the LC. The mobile phase consisted of 10 mM ammonium acetate with 0.1% acetic acid and 0.1% hexylamine as Solvent-A and 10 mM Ammonium acetate with 0.1% acetic acid and 0.1% hexylamine in 95/5 MeOH/H2O as Solvent-B. The gradient used was 0 mins-0.0% B, 0.5 mins-100% B, 1.5 mins-100% B, 3.0 mins-100% B, 3.1 mins-0.0% B, 7.0-STOP. The column flow rate was 0.5 mL/min. The sample injection volume was […].

[1] = PK study in rats (plasma); format: in vivo; conditions: rats; for half-life: plasma
human hepatocytes = assay: Human hepatocyte stability
Method: 10 mM stock solution of test compound was prepared in DMSO and diluted to a concentration of 1 mM with DMSO. Working concentration of 2 μM was prepared by further dilution with PBS. Preincubation mixture of 150 μL of hepatocyte cell suspension (1,000,000 cells/mL, INVITROGRO HT medium buffer), was added to vials for preincubation for 10 min @37° C.
150 μL of 2 μM working stock of the test compound was added to the cell suspension and incubated at @37 C at 500 rpm. The reaction was stopped at 0, 15, 30, 60 and 90 min by precipitating 50 μL of the incubation mixture with 150 μL of acetonitrile. Samples were vortexed for 5 min at 1200 rpm and centrifuged at 4000 rpm for 10 min. 150 μL of the supernatant was diluted with 150 μL of water and injected in MS system (SCIEX, API 4500 Q Trap) for analysis.

Kinetic solubility = format: physicochemical; conditions: for solubility at 1.5 h: aqueous buffer, kinetic from dmso stock, 0.1 M phosphate buffered saline pH 7.4, target 100 μM; for % Solubility: at 100 μM, 0.1 M phosphate buffered saline pH 7.4
Method: The target compound concentration was 100 μM (kinetic), the assay buffer was 0.1 M phosphate buffered saline pH 7.4, the mixing period was 1.5 h (kinetic). The sample was prepared by centrifugation or filtration and the detection method used was HPLC with UV-vis spectrometry.

Human Plasma Protein = assay: in vitro; conditions: human, plasma
Method: The test compounds were weighed and prepared as 10 mM stocks in 100% DMSO. 10 μM is the final test concentration for all compounds.
The samples were prepared by spiking test compound(s) in plasma at 10 μM final concentration. 200 μL of plasma containing the test compound was added into the donor well (RED Chamber) of the insert. Simultaneously 350 μL of dialysis buffer (1×PBS) was added into the receiver well (white chamber). Two measurements were made for each test compound. The plate was covered with a sealer and incubated at 37° C. degrees on an orbital shaker at 500 rpm for 5 hours.
After incubation, 25 μl of plasma (RED chamber) and 25 μl of buffer (white chamber) samples were separately collected into separate centrifugation tubes. Plasma and buffer samples were precipitated with 200 μL of 100% acetonitrile containing internal standards. 25 μl of T0 (T Zero) plasma samples (samples before 5 hours incubation) were collected (To samples were processed immediately after the preparation of plasma working stock solution. These samples serve as a measure for calculating the percentage recovery of the test compound and precipitated using 100% acetonitrile containing internal standards). The samples were vortexed at 1000 rpm for 5 min and centrifuged at 4000 rpm for 10 min. The supernatant was diluted 2-fold with water and injected into LC-MS/MS.
The % of Plasma bound/unbound fraction was calculated by the following equation: % Unbound or % free=100*(Fc/Tc); % Recovery=100 (Fc+Tc)/[…] where Tc=Total compound concentration as determined by the calculated concentration on the plasma side of the membrane (concentration in plasma chamber), Fc=Free compound concentration as determined by the calculated concentration on the buffer side of the membrane (concentration in buffer chamber) and T0=Total compound concentration as determined before dialysis.

[2] = Caco-2 permeability assay; conditions: human
Text: The endpoint measured is the intestinal permeability expressed as apparent permeability—Papp value. All permeability values are represented as ×10^−6 cm/sec.

[3] = rat, Group 2: compound 100 83 mg/kg IV, analyte compound 100 in plasma
[4] = read-out: Mean Solubility (μg/mL)

In the case of `O=C(OC1O[C@H](CO)[C@@H](O)[C@H]1O)c1cccnc1` (stereo partly drawn) [Compound 100, (3R, 4S, 5R)-3,4-dihydroxy-5-(hydroxymethyl) tetrahydrofuran-2-yl nicotinate], the “NAD+ level increase compared to untreated cells” value (Jurkat Cells) is reported as “showed statistical significance in terms of NAD^+ level increases”, the half-life ([1]; rat, iv, 83 mg/kg, Group 2: compound 100 83 mg/kg IV, analyte compound 100 in plasma, read-out: T1/2 (converted)) is reported as 1.01 ± 0.22 h and the half-life ([1]; rat, iv, 83 mg/kg, delivered by IV, read-out: T1/2 of degradation in rat plasma (converted)) is reported as 1 h. For the same compound, the half-life ([1]; rat, po, 415 mg/kg, oral, said to be consistent with hepatocyte stability in vitro, read-out: T1/2 following oral administration) was 5 to 6 h, the Cmax [1, 3] was 188 ± 97.2 µM and the Tmax [1, 3] was 8.34 ± 5.76 min. The clearance [1, 3] was 37.7 mL/min/kg, the AUC(0-t) ([1]; rat, Group 2: compound 100 83 mg/kg IV, analyte compound 100 in plasma, read-out: AUC0-1) was 148 ± 34 µM·h and the Vd ([1]; rat, Group 2: compound 100 83 mg/kg IV, analyte compound 100 in plasma, read-out: Vss) was 3.4 ± 1.62 L/kg. For the same compound, the “in vivo pharmacology compared with nicotinic acid (conclusion)” value [1] was “superior in vivo pharmacology than nicotinic acid with a longer half-life, lower maximal concentration (C), better bioavailability and has a depot effect in the kidney and liver”, the “IV pharmacokinetics profile (in words)” value ([1]; IV) was “biphasic rapid distribution followed by elimination” and the “clearance in human hepatocytes (in words)” value (shortened to “clearance … (in words)”) (human hepatocytes) was “medium clearance”. For the same compound, the “% Parent Remaining” value (human hepatocytes; 0 mins) was 100%, the “% Parent Remaining” value (human hepatocytes; 15 mins) was 97% and the “% Parent Remaining” value (human hepatocytes; 30 mins) was 87.6%. The “% Parent Remaining” value (human hepatocytes; 60 mins) was 73.0%, the “% Parent Remaining” value (human hepatocytes; 90 mins) was 66.4% and the solubility at 1.5 h (Kinetic solubility; read-out: Mean Solubility) was 96.5 µM. For the same compound, the solubility at 1.5 h (Kinetic solubility; [4]) was 24.6 µg/mL, the “% Solubility” value (Kinetic solubility) was 96% and the “protein binding (footnote, in words)” value (Human Plasma Protein) was “Compounds 100 and 102 were not detected indicating no protein binding as shown in Table 12, above”. The Papp A→B [2] was 0.5 ×10⁻⁶ cm/s, the Papp B→A [2] was 0.6 ×10⁻⁶ cm/s and the efflux ratio [2] was 1.2. For the same compound, the recovery ([2]; Caco-2, % Recovery A to B) was 98.5% and the recovery ([2]; Caco-2, % Recovery B to A) was 89%.
For `COC(=O)[C@@H](C)NP(=O)(OC[C@H]1OC(OC(=O)c2cccnc2)[C@H](O)[C@@H]1O)Oc1ccccc1` (stereo partly drawn) [Compound 101, (3R, 4S, 5R)-3,4-dihydroxy-5-(((((1-methoxy-1-oxopropan-2-yl)amino)(phenoxy)phosphoryl)oxy)methyl)tetrahydrofuran-2-yl nicotinate], the “NAD+ level increase compared to untreated cells” value (Jurkat Cells) was “showed statistical significance in terms of NAD^+ level increases”, the “NAD+ level increase, comparison among the compounds” value (Jurkat Cells) was “highest increase” and the “clearance … (in words)” value (human hepatocytes) was “high clearance”. The “% Parent Remaining” value (human hepatocytes; 0 mins) was 100%, the “% Parent Remaining” value (human hepatocytes; 15 mins) was 43% and the “% Parent Remaining” value (human hepatocytes; 30 mins) was 20.1%. For the same compound, the “% Parent Remaining” value (human hepatocytes; 60 mins) was 6.4%, the “% Parent Remaining” value (human hepatocytes; 90 mins) was 2.0% and the solubility at 1.5 h (Kinetic solubility; read-out: Mean Solubility) was 117 µM. For the same compound, the solubility at 1.5 h (Kinetic solubility; [4]) was 58 µg/mL, the “% Solubility” value (Kinetic solubility) was 100% and the “Remarks (binding class)” value (Human Plasma Protein) was “Medium binding”. The Papp A→B [2] was 0.2 ×10⁻⁶ cm/s, the Papp B→A [2] was 6.1 ×10⁻⁶ cm/s and the efflux ratio [2] was 39. The recovery ([2]; Caco-2, % Recovery A to B) was 86.5% and the recovery ([2]; Caco-2, % Recovery B to A) was 87.9%.
In the case of `O=C(OC[C@H]1OC(O)[C@H](O)[C@@H]1O)c1ccccn1` (stereo partly drawn) [Compound 102, (3,4,5-trihydroxytetrahydrofuran-2-yl) methyl picolinate], the “NAD+ level increase compared to untreated cells” value (Jurkat Cells) is reported as “showed statistical significance in terms of NAD^+ level increases”, the “clearance … (in words)” value (human hepatocytes) is reported as “medium clearance” and the solubility at 1.5 h (Kinetic solubility; read-out: Mean Solubility) is reported as 105 µM. For the same compound, the solubility at 1.5 h (Kinetic solubility; [4]) was 26.9 µg/mL, the “% Solubility” value (Kinetic solubility) was 100% and the “protein binding (footnote, in words)” value (Human Plasma Protein) was “Compounds 100 and 102 were not detected indicating no protein binding as shown in Table 12, above”. The Papp A→B [2] was 0.9 ×10⁻⁶ cm/s, the Papp B→A [2] was 0.8 ×10⁻⁶ cm/s and the efflux ratio [2] was 1. It also gave a recovery ([2]; Caco-2, % Recovery A to B) of 94.9% and a recovery ([2]; Caco-2, % Recovery B to A) of 90.7%.
